# What was measured:
# CDK2/Cyclin E1 = CDK2/Cyclin E1 (Homo sapiens, UniProt P24941); assay: CDK2/Cyclin E1 TR-FRET biochemical assay, 1 mM ATP; settings: 0.15 μM Rb (Ser780)-biotin substrate, 90 min reaction, Table 2
# Procedure: (§1) Compounds disclosed herein were tested for inhibition of CDK2/Cyclin E1 or CDK1/Cyclin B kinase in an assay based on the time-resolved fluorescence-resonance energy transfer (TR-FRET) methodology. The assay was carried out in 384-well low volume black plates in a reaction mixture containing CDK2/Cyclin E1 or CDK1/Cyclin B1, 1 mM ATP for CDK2/Cyclin E1 and CDK1/Cyclin B1, 0.15 μM Rb (Ser780)-biotin substrate and 0-10 μM compound in buffer containing 50 mM HEPES pH7.0, 0.02% NaN3, 0.01% BSA, 0.1 mM Orthovanadate, 50 mM MgCl2, 1 mM DTT and 0.005% Tween-20. The kinase was incubated with compound for 60 minutes at room temperature and the reaction was initiated by the addition of ATP and Rb (Ser780)-biotin substrate. After reaction at room temperature for 90 minutes, an equal volume of stop/detection solution was added according to the manufacture's instruction (Cisbio Bioassays). The stop/detection solution contained Streptavidin-XL665 and Anti-pRb (Ser780) mAb-Eu Cryptate in Detection buffer (Cisbio Bioassays). Plates were incubated at room temperature for 60 minutes, and the TR-FRET signals (ex337 nm, em665 nm/620 nm) were recorded on a PHERAstar FSX plate reader (BMG Labtech). The inhibition percentage of CDK2/Cyclin E1 or CDK1/Cyclin B1 kinase activity in presence of increasing concentrations of compounds was calculated based on the ratio of fluorescence at 665 nm to that at 620 nm. The IC50 for each compound was derived from fitting the data to the four-parameter logistic equation by Dotmatics.
# CDK1/Cyclin B1 = CDK1/Cyclin B1 (Homo sapiens, UniProt P06493); assay: CDK1/Cyclin B1 TR-FRET biochemical assay, 1 mM ATP; settings: 0.15 μM Rb (Ser780)-biotin substrate, 90 min reaction, Table 2
# Procedure: as §1
# Sequence of CDK1/Cyclin B1 (P06493 whole entry): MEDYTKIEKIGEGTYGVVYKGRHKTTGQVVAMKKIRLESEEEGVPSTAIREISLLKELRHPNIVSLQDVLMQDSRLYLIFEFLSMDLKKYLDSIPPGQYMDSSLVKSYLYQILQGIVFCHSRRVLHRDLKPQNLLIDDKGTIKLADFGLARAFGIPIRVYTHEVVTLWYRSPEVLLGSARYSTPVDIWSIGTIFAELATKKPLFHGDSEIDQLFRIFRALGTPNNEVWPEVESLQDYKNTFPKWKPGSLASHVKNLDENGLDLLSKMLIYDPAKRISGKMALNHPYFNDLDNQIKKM
# Sequence of CDK1/Cyclin B1 (P14635 whole entry partner): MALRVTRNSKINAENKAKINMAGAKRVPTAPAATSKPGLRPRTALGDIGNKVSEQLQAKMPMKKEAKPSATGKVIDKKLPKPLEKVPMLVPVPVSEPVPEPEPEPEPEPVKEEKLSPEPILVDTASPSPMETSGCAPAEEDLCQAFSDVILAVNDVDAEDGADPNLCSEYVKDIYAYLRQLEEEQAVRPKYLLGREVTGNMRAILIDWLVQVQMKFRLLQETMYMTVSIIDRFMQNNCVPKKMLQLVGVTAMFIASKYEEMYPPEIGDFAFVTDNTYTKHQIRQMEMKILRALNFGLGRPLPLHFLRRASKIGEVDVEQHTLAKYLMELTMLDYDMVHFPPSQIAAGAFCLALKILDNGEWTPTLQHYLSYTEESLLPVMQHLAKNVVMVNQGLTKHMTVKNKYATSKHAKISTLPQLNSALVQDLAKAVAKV
IC50 (CDK2/Cyclin E1) [nM],IC50 (CDK1/Cyclin B1) [nM],SMILES
1910,> 10000,"CC(C)(C)c1cnc(C2CCC(c3cc(Nc4ccc(S(N)(=O)=O)cc4F)n[nH]3)C2)o1 (single isomer, unassigned) [Example 6c, 4-((5-(3-(5-(tert-butyl)oxazol-2-yl)cyclopentyl)-1H-pyrazol-3-yl)amino)-3-fluorobenzenesulfonamide]"
88,> 10000,"CC(C)(C)c1cnc(C2CCC(c3cc(Nc4ccc(S(N)(=O)=O)cc4F)n[nH]3)C2)o1 (single isomer, unassigned) [Example 6b, 4-((5-(3-(5-(tert-butyl)oxazol-2-yl)cyclopentyl)-1H-pyrazol-3-yl)amino)-3-fluorobenzenesulfonamide]"
3,336,"Cc1nc(C2CCC(c3cc(Nc4ccc5c(c4F)CS(=O)(=O)C5)n[nH]3)C2)oc1C(C)(C)C (stereo not shown) [Example 177, 5-((5-(3-(5-(tert-butyl)-4-methyloxazol-2-yl)cyclopentyl)-1H-pyrazol-3-yl)amino)-4-fluoro-1,3-dihydrobenzo[c]thiophene 2,2-dioxide]"
6,624,"CN1c2ccc(Nc3cc(C4CCC(c5ncc(C(C)(C)C)o5)C4)[nH]n3)cc2CS1(=O)=O (stereo not shown) [Example 140, 5-((5-(3-(5-(tert-butyl)oxazol-2-yl)cyclopentyl)-1H-pyrazol-3-yl)amino)-1-methyl-1,3-dihydrobenzo[c]isothiazole 2,2-dioxide]"
2,348,"CC(C)(C)c1cnc(C2CCC(c3cc(Nc4ccc5c(c4F)CN=S5(C)=O)n[nH]3)C2)o1 (stereo not shown) [Example 171, 5-((5-(3-(5-(tert-butyl)oxazol-2-yl)cyclopentyl)-1H-pyrazol-3-yl)amino)-4-fluoro-1-methyl-3H-1λ^4-benzo[d]isothiazole 1-oxide]"
351,> 10000,"CC(C)(C)c1cnn([C@@H]2CC[C@H](c3cc(Nc4ccc5c(c4F)CNS5(=O)=O)n[nH]3)C2)c1 (relative stereo) [Example 89, cis-5-((5-(3-(4-(tert-butyl)-1H-pyrazol-1-yl)cyclopentyl)-1H-pyrazol-3-yl)amino)-4-fluoro-2,3-dihydrobenzo[d]isothiazole 1,1-dioxide]"
3290,> 10000,"CC(C)(C)n1cc(C2CCC(c3cc(Nc4ccc5c(c4F)CNS5(=O)=O)n[nH]3)C2)cn1 (stereo not shown) [Example 99, 5-((5-(3-(1-(tert-butyl)-1H-pyrazol-4-yl)cyclopentyl)-1H-pyrazol-3-yl)amino)-4-fluoro-2,3-dihydrobenzo[d]isothiazole 1-dioxide]"
369,> 10000,"CC(C)(C)c1cnnc(C2CCC(c3cc(Nc4cc5c(cc4F)S(=O)(=O)NC5)n[nH]3)C2)c1 (stereo not shown) [Example 14, 5-((5-(3-(5-(tert-butyl)pyridazin-3-yl)cyclopentyl)-1H-pyrazol-3-yl)amino)-6-fluoro-2,3-dihydrobenzo[d]isothiazole 1,1-dioxide]"
> 10000,> 10000,"CC(C)(C)c1cn([C@@H]2CC[C@H](c3cc(Nc4ccc5c(c4F)CNS5(=O)=O)n[nH]3)C2)cn1 (relative stereo) [Example 88, cis-5-((5-(3-(4-(tert-butyl)-1H-imidazol-1-yl)cyclopentyl)-1H-pyrazol-3-yl)amino)-4-fluoro-2,3-dihydrobenzo[d]isothiazole 1,1-dioxide]"
173,> 10000,"CC(C)(C)c1cnc(C2CCC(c3cc(Nc4ccc5c(c4)CN=S5(C)=O)n[nH]3)C2)o1 (single isomer, unassigned) [Example 169d, 5-((5-(3-(5-(tert-butyl)oxazol-2-yl)cyclopentyl)-1H-pyrazol-3-yl)amino)-1-methyl-3H-1λ^4-benzo[d]isothiazole 1-oxide]"
1120,> 10000,"Cc1[nH]nc(C(C)(C)C)c1O[C@@H]1CC[C@H](c2cc(Nc3ccc4c(c3F)CNS4(=O)=O)n[nH]2)C1 (relative stereo) [Example 80, cis-5-((5-(3-((3-(tert-butyl)-5-methyl-1H-pyrazol-4-yl)oxy)cyclopentyl)-1H-pyrazol-3-yl)amino)-4-fluoro-2,3-dihydrobenzo[d]isothiazole 1,1-dioxide]"
308,> 10000,"CC(C)(C)c1cncc(C2CCC(c3cc(Nc4ccc5c(c4F)CS(=O)(=O)N5)n[nH]3)C2)c1 (stereo not shown) [Example 162, 5-((5-(3-(5-(tert-butyl)pyridin-3-yl)cyclopentyl)-1H-pyrazol-3-yl)amino)-4-fluoro-1,3-dihydrobenzo[c]isothiazole 2,2-dioxide]"
462,> 10000,"CC(C)(C)c1ccnc(C2CCC(c3cc(Nc4cc5c(cc4F)S(=O)(=O)NC5)n[nH]3)C2)c1 (stereo not shown) [Example 13, 5-((5-(3-(4-(tert-butyl)pyridin-2-yl)cyclopentyl)-1H-pyrazol-3-yl)amino)-6-fluoro-2,3-dihydrobenzo[d]isothiazole 1,1-dioxide]"
73,> 10000,"O=S1(=O)NCc2cc(Nc3cc(C4CCC(c5ncc(C6CC6)o5)C4)[nH]n3)c(F)cc21 (stereo not shown) [Example 20, 5-((5-(3-(5-cyclopropyloxazol-2-yl)cyclopentyl)-1H-pyrazol-3-yl)amino)-6-fluoro-2,3-dihydrobenzo[d]isothiazole 1,1-dioxide]"
21,2350,"CC(C)(C)c1cnc(C2CCC(c3cc(Nc4ccc5c(c4)CN=S5(C)=O)n[nH]3)C2)o1 (single isomer, unassigned) [Example 169b, 5-((5-(3-(5-(tert-butyl)oxazol-2-yl)cyclopentyl)-1H-pyrazol-3-yl)amino)-1-methyl-3H-1λ^4-benzo[d]isothiazole 1-oxide]"
> 10000,> 10000,"CC(C)(C)c1cccc(C2=CC(c3cc(Nc4ccc5c(c4F)CS(=O)(=O)N5)n[nH]3)CC2)n1 (stereo not shown) [Example 157, 5-((5-(3-(6-(tert-butyl)pyridin-2-yl)cyclopent-2-en-1-yl)-1H-pyrazol-3-yl)amino)-4-fluoro-1,3-dihydrobenzo[c]isothiazole 2,2-dioxide]"
102,> 10000,"CC(C)(C)c1cnc(C2CCC(c3cc(Nc4cc5c(cc4F)S(=O)(=O)NC5)n[nH]3)C2)o1 (single isomer, unassigned) [Example 17c, 5-((5-(3-(5-(tert-butyl)oxazol-2-yl)cyclopentyl)-1H-pyrazol-3-yl)amino)-6-fluoro-2,3-dihydrobenzo[d]isothiazole 1,1-dioxide]"
12,2420,"CC(C)c1cnc(C2CCC(c3cc(Nc4ccc5c(c4)CS(=O)(=O)N5)n[nH]3)C2)o1 (single isomer, unassigned) [Example 138b, cis-5-((5-(3-(5-isopropyloxazol-2-yl)cyclopentyl)-1H-pyrazol-3-yl)amino)-1,3-dihydrobenzo[c]isothiazole 2,2-dioxide]"
6120,> 10000,"CC(C)(C)c1cnc([C@@H]2CC[C@H](c3cc(Nc4ccc5c(c4F)CS(=O)(=O)N5)n[nH]3)C2)s1 (relative stereo) [Example 149, cis-5-((5-(3-(5-(tert-butyl)thiazol-2-yl)cyclopentyl)-1H-pyrazol-3-yl)amino)-4-fluoro-1,3-dihydrobenzo[c]isothiazole 2,2-dioxide]"
147,> 10000,"CC(C)(C)c1cnnc(C2CCC(c3cc(Nc4ccc(S(N)(=O)=O)cc4F)n[nH]3)C2)c1 (stereo not shown) [Example 3, 4-((5-(3-(5-(tert-butyl)pyridazin-3-yl)cyclopentyl)-1H-pyrazol-3-yl)amino)-3-fluorobenzenesulfonamide]"

# From patent publication US20260200897A1, “4-((5-(3-(4-(PYRIDIN-2-YL)CYCLOPENTYL)-1H-PYRAZOL-3-YL)AMINO)-BENZENESULFONAMIDE DERIVATIVES AND SIMILAR COMPOUNDS AS CDK INHIBITORS FOR THE TREATMENT OF CANCER” (BeOne Medicines I GmbH, priority 2023, published 2026)
